Where a name gives a salt, the structure may show the parent alone. Read-outs that look alike come from different tables or passages of the source.

The assay relates to liver. The experiment in a line: CCl4 induced hepatotoxicity in rats (serum AST/ALT). Format: in vivo, rat. The note with it: for protection against CCl4 hepatotoxicity (in words): rats, serum enzyme levels. How it is done:
In vivo experiments were performed to determine if alpha-TS administration protects the liver from chemical toxicity. The liver is the target organ for CCl4. CCl4 is a hepatotoxic agent that induces centrilobular liver necrosis through its metabolism to free radicals. Male Sprague-Dawley rats were given an intraperitoneal dose (100 mg/kg) of a tocopherol analog 24 hours prior to a CCl4 challenge (2.9g/kg given by oral garage). Forty eight hours after the challenge, the rats were sacrificed and the levels of aspartate aminotransferase (AST) and alanine aminotransferase (ALT) were measured.
As discussed above, SGOT levels provide a clinical assessment of hepatotoxicity (liver damage).
Succinate analogs were administered to male Sprague-Dawley rats 20 hours prior to a 1 g CCl4 /kg body weight oral challenge and the AST and ALT serum enzyme levels were measured 48 hours after the challenge.
Similar to the experiments were described above, the ionizable congeners were administered to Sprague-Dawley rats by i.p. injection of a 100 mg ionizable congener/kg body weight dose 20 hours prior to oral administration of a 1 g/kg dose of CCl4, and the AST and ALT levels were measured 48 hours after the CCl4 challenge.

Where [1] appears, read: 100 mg/kg ip, 48 h after 1 g/kg CCl4 (Table 42).
Where [2] appears, read: 100 mg/kg ip, 48 h after 1 g/kg CCl4 (Table 33).
The mark [3] stands for this setting: Rattus norvegicus, 100 mg/kg ip 20 h prior, 48 h after 1 g/kg CCl4, read-out: % Hepatoprotection.
The mark [4] stands for this setting: 100 mg/kg ip, 48 h after 1 g/kg CCl4 (Table 37).
The mark [5] stands for this setting: 100 mg/kg ip (dihydrocholesterol 80 + sodium sulfate 30 mg/kg), 48 h after 1 g/kg CCl4 (Table 35).
The mark [6] stands for this setting: 100 mg/kg ip, peanut oil vehicle, 48 h after 1 g/kg CCl4 (Table 39).
Where [7] appears, read: 100 mg/kg ip, PEG 400 vehicle, 48 h after 1 g/kg CCl4 (Table 34).
Where [8] appears, read: Rattus norvegicus, ip, 48 h, read-out: % Hepatoprotection.
The mark [9] stands for this setting: 100 mg/kg ip, 48 h after 1 g/kg CCl4 (Table 40).
Setting [10] is: 100 mg/kg ip, 48 h after 1 g/kg CCl4 (Table 38).
Where [11] appears, read: 50 mg/kg ip, 48 h after 1 g/kg CCl4 (Table 41).
[12] abbreviates: 100 mg/kg ip, 48 h after 1 g/kg CCl4 (Table 31).
Setting [13] is: 20 h prior, 48 h after 1 g/kg CCl4 (Table 36).

On to `CC(=O)Oc1ccc2c(c1)CCC1C2CC[C@]2(C)C(=O)CCC12` (stereo partly drawn) [Estrone Acetate, reference compound], for which, under setting [1], the ALT is listed as 0.18 ± 0.08 10^3 units/L and the AST is 0.53 ± 0.24 10^3 units/L.
For the compound `CCCCCCCCCCCCCCCCOC(=O)CCC(=O)O` [Palmityl succinate], under setting [2], the ALT is 1.679 ± 0.881 10^3 units/L and the AST is 6.54 ± 3.61 10^3 units/L. In addition, the inhibition in vivo at 100 mg/kg under setting [3] was 22%.
In the case of `C/C(=C\CO)CCC[C@H](C)CCC[C@H](C)CCCC(C)C` [Phytol, reference compound], the “protection against CCl4 hepatotoxicity (in words)” value (shortened to “protection”) is “generally not protective”. Under setting [4], the ALT was 2.82 ± 0.54 10^3 units/L and the AST was 4.71 ± 1.00 10^3 units/L.
As for `CCCCC/C=C\C/C=C\CCCCCCCCOC(=O)CCC(=O)O` [Linoleyl succinate], under setting [5], the ALT is on record as 1.44 ± 0.59 10^3 units/L and the AST was 4.47 ± 2.21 10^3 units/L. For the same compound, under setting [6], the ALT was 1.95 ± 0.84 10^3 units/L and the AST was 5.60 ± 1.30 10^3 units/L. Besides, under setting [3], the inhibition in vivo at 100 mg/kg was 46%.
Regarding `C[C@]12CC[C@H](OS(=O)(=O)O)CC1=CC[C@@H]1[C@@H]2CC[C@]2(C)C(=O)CC[C@@H]12` [Dehydroepiandosterone 3-sulfate], under setting [7], the ALT is listed as 3.89 ± 0.81 10^3 units/L and the AST is 13.85 ± 0.37 10^3 units/L. The inhibition in vivo at 100 mg/kg under setting [8] was 4%.
Take `CCCCCCCCCCCCOS(=O)(=O)[O-].[Na+]` [Lauryl sulfate, sodium salt]: the “protection” value is listed as “generally not protective”. In addition, under setting [9], the ALT is reported as 1.40 ± 0.59 10^3 units/L and the AST is listed as 5.00 ± 1.54 10^3 units/L. Besides, the inhibition in vivo at 100 mg/kg under setting [8] is 26%.
Consider `C[C@]12CC[C@@H]3c4ccc(OS(=O)(=O)O)cc4CC[C@H]3[C@@H]1CCC2=O` [Estrone sulfate, potassium salt], for which the “protection” value was “slight cytoprotection”. Also, for the setting “ip, 100 mg/kg, 48 h”, the ALT is 0.87 ± 0.59 10^3 units/L and the AST is recorded as 4.19 ± 2.75 10^3 units/L.
In the case of `C/C(=C\COC(=O)CCC(=O)O)CCCC(C)CCCC(C)CCCC(C)C` (stereo not drawn) [Phytol succinate], the “protection” value was “generally not protective”. Besides, under setting [4], the ALT is given as 1.70 ± 0.18 10^3 units/L and the AST was 3.29 ± 0.51 10^3 units/L. The inhibition in vivo at 100 mg/kg under setting [3] came out at 27%.
As for `CC(C)CCC[C@@H](C)[C@H]1CC[C@H]2[C@@H]3CC[C@H]4C[C@@H](OC(=O)CCC(=O)O)CC[C@]4(C)[C@H]3CC[C@]12C` [Dihydrocholesterol succinate, tris salt], under setting [4], the ALT is reported as 0.09 ± 0.03 10^3 units/L and the AST is given as 0.19 ± 0.05 10^3 units/L. In addition, the inhibition in vivo at 100 mg/kg under setting [8] worked out at 100%.
Regarding `C[C@]12CC[C@@H]3c4ccc(OC(=O)CCC(=O)O)cc4CC[C@H]3[C@@H]1CCC2=O` [Estrone 3-Succinate], the “protection” value was “slight cytoprotection”. Moreover, under setting [9], the ALT is on record as 0.51 ± 0.56 10^3 units/L and the AST is 1.71 ± 1.00 10^3 units/L. Besides, under setting [1], the ALT is given as 0.32 ± 0.12 10^3 units/L and the AST is 0.70 ± 0.20 10^3 units/L.
Consider `CC(C)[C@@H](C)/C=C/[C@@H](C)[C@H]1CC[C@H]2C3=CC=C4C[C@@H](O)CC[C@]4(C)[C@H]3CC[C@]12C` [Ergosterol, reference compound], for which the “protection” value is on record as “cytoprotection from toxic CCl4 insults”. Further, under setting [10], the ALT is reported as 0.93 ± 0.48 10^3 units/L and the AST was 1.73 ± 0.58 10^3 units/L. Besides, under setting [6], the ALT is listed as 0.63 ± 0.45 10^3 units/L and the AST is given as 1.90 ± 0.73 10^3 units/L.
As to `CCCCCCCCCCCCCCCCO` [Palmityl Alcohol, reference compound], the “protection” value is on record as “generally not protective”. Under setting [2], the ALT is reported as 1.840 ± 1.106 10^3 units/L and the AST was 8.70 ± 3.00 10^3 units/L.
Turning to `CC1=C(/C=C/C(C)=C/C=C/C(C)=C/C(=O)O)C(C)(C)CCC1` [Retinoic acid, reference compound], the “protection” value is recorded as “potentiated CCl4 toxicity”. Moreover, under setting [11], the ALT is reported as 6.14 ± 0.74 10^3 units/L and the AST is listed as 17.94 ± 0.71 10^3 units/L. Where the note is “Rattus norvegicus, 50 mg/kg ip 20 h prior, 48 h after 1 g/kg CCl4, read-out: % Hepatoprotection”, the inhibition in vivo at 50 mg/kg was -83%.
Regarding `CC(=O)O[C@H]1CC[C@@]2(C)C(=CC[C@H]3[C@@H]4CC[C@H]([C@H](C)CCCC(C)C)[C@@]4(C)CC[C@@H]32)C1` [Cholesterol acetate, reference compound], the “protection” value is “provided no protection”. Moreover, under setting [12], the ALT is listed as 0.96 ± 0.32 10^3 units/L and the AST was 3.06 ± 1.06 10^3 units/L.
Take `CC(C)CCC[C@@H](C)[C@H]1CC[C@H]2[C@@H]3CC[C@H]4C[C@@H](OC(=O)CCC(=O)O)CC[C@]4(C)[C@H]3CC[C@]12C` [Dihydrocholesterol succinate]: the “protection” value is recorded as “complete protection against hepatotoxicity”. Also, under setting [13], the ALT was 0.39 ± 0.40 10^3 units/L and the AST was 0.44 ± 0.29 10^3 units/L.
In the case of `CC(C)[C@@H](C)/C=C/[C@@H](C)[C@H]1CC[C@H]2C3=CC=C4C[C@@H](OC(=O)CCC(=O)O)CC[C@]4(C)[C@H]3CC[C@]12C` [Ergosterol succinate, tris salt], the “protection” value was “protection against hepatotoxicity”. Besides, under setting [10], the ALT is 0.46 ± 0.25 10^3 units/L and the AST is reported as 0.80 ± 0.28 10^3 units/L. In addition, the inhibition in vivo at 100 mg/kg under setting [8] was found to be 80%.
In the case of `CC(C)CCC[C@@H](C)[C@H]1CC[C@H]2[C@@H]3CC=C4C[C@@H](OS(=O)(=O)O)CC[C@]4(C)[C@H]3CC[C@]12C` [Cholesteryl 3-sulfate, sodium salt], the “protection” value is “potent cytoprotective agents in vivo”. For the same compound, under setting [2], the ALT is 0.240 ± .133 10^3 units/L and the AST is 0.86 ± 0.35 10^3 units/L. Further, the inhibition in vivo at 100 mg/kg under setting [8] was determined as 90%.
As to `CCCCC/C=C\C/C=C\CCCCCCCCO` [Linoleyl alcohol, reference compound], the “protection” value was “potentiates CCl4 toxicity”. Further, under setting [5], the ALT is reported as 5.45 ± 1.10 10^3 units/L and the AST is on record as 15.60 ± 2.98 10^3 units/L.
In the case of `CC(C)[C@@H](C)/C=C/[C@@H](C)[C@H]1CC[C@H]2C3=CC=C4C[C@@H](OS(=O)(=O)O)CC[C@]4(C)[C@H]3CC[C@]12C` [Ergosterol sulfate, potassium salt], the “protection” value was “protection against hepatotoxicity”. Also, under setting [10], the ALT is 0.28 ± 0.37 10^3 units/L and the AST was 0.58 ± 0.53 10^3 units/L. In addition, the inhibition in vivo at 100 mg/kg under setting [8] was determined as 86%.
As to `CC(C)CCC[C@@H](C)[C@H]1CC[C@H]2[C@@H]3CC=C4C[C@@H](OC(=O)c5ccccc5C(=O)O)CC[C@]4(C)[C@H]3CC[C@]12C` [Cholesteryl hydrogen phthalate], the “protection” value is on record as “potent cytoprotective agents in vivo”. Under setting [7], the ALT was 0.06 ± 0.03 10^3 units/L and the AST is 0.30 ± 0.12 10^3 units/L. Under setting [8], the inhibition in vivo at 100 mg/kg was 100%.
For `C[C@]12CC[C@H](OC(=O)CCC(=O)O)CC1=CC[C@@H]1[C@@H]2CC[C@]2(C)C(=O)CC[C@@H]12` [Dehydroepiandosterone 3-succinate], under setting [6], the ALT is on record as 3.89 ± 1.77 10^3 units/L and the AST is 10.42 ± 3.36 10^3 units/L. Also, under setting [8], the inhibition in vivo at 100 mg/kg turned out to be 0%.
Turning to `C[C@]12CCC(=O)C=C1CC[C@@H]1[C@@H]2[C@@H](O)C[C@@]2(C)[C@H]1CC[C@]2(O)C(=O)COC(=O)CCC(=O)O` [Hydrocortisone 21-succinate, reference compound], the “protection” value is recorded as “no cytoprotection was observed”. Further, under setting [2], the ALT is 1.596 ± 0.887 10^3 units/L and the AST is 6.18 ± 3.15 10^3 units/L. Besides, under setting [3], the inhibition in vivo at 100 mg/kg is 25%.
As to `C[C@]12CC[C@@H]3c4ccc(O)cc4CC[C@H]3[C@@H]1CCC2=O` [Estrone, reference compound], under setting [1], the ALT is recorded as 0.33 ± 0.30 10^3 units/L and the AST is recorded as 0.56 ± 0.45 10^3 units/L.

(Values after patent publication US5336485A, “Method for protecting animals against tacrine induced cytotoxic injury using sterol compounds” (priority 1993, dated 1994).)
